Test results as given in patent US5691373A, “Nonpeptide endothelin antagonists I” (Warner-Lambert Company, priority 1995, dated 1997).
pIC50: −log10 of the molar value. Read-outs that look alike come from different tables or passages of the source. Where a SMILES comes first, the peptide text is derived from it. [ ]: non-standard residue; d: D form.

Tests used:
ETA [1] = conditions: cited from earlier work
[2] = system: ET-1 induced bronchoconstriction and tracheal smooth muscle contraction; conditions: allergic sheep; cited from earlier work
endotoxic shock = conditions: cited from earlier work
cerebral vasospasm [3] = conditions: cited from earlier work
cerebral vasospasm [4] = conditions: in vivo; cited from earlier work
cerebral vasospasm [5] = conditions: cited from earlier work; for early cerebral vasospasm following SAH: rat
[6] = system: ET-1 Induced Pressor Response; experiment: inhibition of ET-1 induced pressor response in anesthetized ganglionic blocked rats; assay type: in vivo, rat (Sprague Dawley); conditions: IV, ET-1 1 nm/kg
Description: Antagonists were administered IV bolus (3, 10, 30, 100 μmol/kg, IV bolus) in separate groups of rats (5 minutes before ET-1 challenge [see Haleen, et al., J. Cardiovasc, Pharm., 22(Suppl. 8):598-5102 (1993)]). Duration of action of the antagonist was determined in conscious, chronically prepared normotensive rats. Rats were challenged with ET-1 (1.0 nmol/kg, IV bolus) on 5 consecutive days; Day =b 1 =l control and on Days 2-5 at 5, 20, 60, and 120 minutes following treatment with the antagonist. Separate groups of rats were used for each antagonist treatment.

ETA [7] = target: T1, ETA (Oryctolagus cuniculus, UniProt A5A8K3)
T1 sequence (A5A8K3 21-427): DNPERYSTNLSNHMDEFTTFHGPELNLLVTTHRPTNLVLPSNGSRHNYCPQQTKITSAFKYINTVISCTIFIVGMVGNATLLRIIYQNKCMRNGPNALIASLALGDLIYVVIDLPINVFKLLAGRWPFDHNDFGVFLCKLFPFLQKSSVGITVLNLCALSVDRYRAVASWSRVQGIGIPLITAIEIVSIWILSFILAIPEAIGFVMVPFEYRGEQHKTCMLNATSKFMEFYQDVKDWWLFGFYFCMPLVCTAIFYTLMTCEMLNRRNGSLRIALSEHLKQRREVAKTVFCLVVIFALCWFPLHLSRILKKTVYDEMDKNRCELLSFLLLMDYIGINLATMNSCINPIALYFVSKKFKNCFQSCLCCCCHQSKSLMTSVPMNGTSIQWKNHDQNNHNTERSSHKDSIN

ETB [8] = target: T2, ETB (Rattus norvegicus, UniProt P21451)
T2 sequence (P21451 27-442): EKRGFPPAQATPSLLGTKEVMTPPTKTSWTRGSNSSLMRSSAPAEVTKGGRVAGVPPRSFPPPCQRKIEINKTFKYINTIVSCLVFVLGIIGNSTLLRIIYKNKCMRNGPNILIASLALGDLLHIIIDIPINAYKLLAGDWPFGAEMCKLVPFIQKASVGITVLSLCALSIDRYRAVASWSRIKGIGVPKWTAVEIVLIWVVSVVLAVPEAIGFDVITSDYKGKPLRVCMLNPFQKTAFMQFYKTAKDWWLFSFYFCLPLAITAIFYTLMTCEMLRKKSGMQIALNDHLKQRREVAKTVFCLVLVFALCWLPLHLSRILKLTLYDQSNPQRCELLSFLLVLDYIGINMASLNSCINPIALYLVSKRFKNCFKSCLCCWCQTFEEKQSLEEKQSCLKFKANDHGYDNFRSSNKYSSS
Description: The tissue is made up of 20 mM tris(hydroxymethyl)aminomethane hydrochloride (Trizma) buffer, 2 mM ethylenediaminetetra acetate, 100 μM phenylmethylsulfonyl fluoride.
First, thaw one aliquot of frozen rat cerebellar membranes (2 mg protein in 0.5 mL). Next, add 0.5 mL membrane aliquot to 4.5 mL cold tissue buffer, polytron at 7,500 revolutions per minute for 10 seconds. Finally, dilute tissue suspension 1/100 (0.1 mL suspension+9.9 mL tissue buffer), polytron again, and place ice.
Mix in 150 μL of tissue to each tube, vortex briefly, then tap to force all liquids to bottom (total assay volume=250 μL). Then place the tubes in a 37° C. water bath for 2 hours.
Add 2.5 mL cold wash buffer (50 mM Trizma buffer) to each tube, filter, and then wash tube with additional 2.5 mL wash buffer and add to filter. Finally, wash filters with an additional 2.5 mL of cold wash buffer.
Count filters for radioactivity in gamma counter.

human ETB receptor = target: T3, human ETB receptor (Homo sapiens, UniProt P24530); experiment: ERBA-B: [125I]-ET-1 binding, recombinant human ETB receptor expressed in CHO-K1 cells; conditions: human cloned ETB receptor, read-out: ERBA-B IC50, human cloned receptor data
T3 construct: expressed in transfected cells; host or cells: CHO-K1 cells, pRc-CMW (so in the source) expression vector, electroporation; membranes used
T3 sequence (P24530 27-442): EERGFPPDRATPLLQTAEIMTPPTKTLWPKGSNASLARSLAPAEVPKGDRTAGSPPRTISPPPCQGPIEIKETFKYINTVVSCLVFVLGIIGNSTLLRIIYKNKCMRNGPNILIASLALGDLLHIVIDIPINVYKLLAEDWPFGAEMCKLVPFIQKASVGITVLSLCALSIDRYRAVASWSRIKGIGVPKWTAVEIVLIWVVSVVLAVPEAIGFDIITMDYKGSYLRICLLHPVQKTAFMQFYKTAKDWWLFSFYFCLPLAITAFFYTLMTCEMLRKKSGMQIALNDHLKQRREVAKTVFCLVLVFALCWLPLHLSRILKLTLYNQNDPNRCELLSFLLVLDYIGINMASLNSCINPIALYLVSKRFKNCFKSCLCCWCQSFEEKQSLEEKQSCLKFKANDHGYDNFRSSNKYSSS

ETA [9] = target: T1, ETA; experiment: VERA-A: antagonism of ET-1 stimulated vasoconstriction in the rabbit femoral artery (ETA); assay type: cell-based; conditions: ET-1, rabbit femoral artery
Description: Male New Zealand rabbits were killed by cervical dislocation and exsanguination. Femoral and pulmonary arteries were isolated, cleaned of connective tissue, and cut into 4-mm rings. The endothelium was denuded by placing the rings over hypodermic tubing (32 gauge for femoral rings and 28 gauge for pulmonary rings, Small Parts, Inc, Miami, Fla.) and gently rolling them. […] Resting tension was adjusted to 3.0 g for femoral and 4.0 g pulmonary arteries; the rings were left for 90 minutes to equilibrate.

acute renal ischemia = conditions: rats; cited from earlier work
ETB [10] = conditions: isolated, endothelium-intact porcine pulmonary arteries; cited from earlier work

Cc1noc(NS(=O)(=O)c2cccc3c(N(C)C)cccc23)c1C [5-(Dimethylemino)-N-(3,4-dimethyl-5-isoxazolyl)-1-naphthalenesulfonamide]
oral antihypertensive effect (ETA [1]): demonstrated an oral antihypertensive effect

CC(C)C[C@@H]1NC(=O)[C@@H](C(C)C)NC(=O)[C@@H]2CCCN2C(=O)[C@@H](CC(=O)O)NC(=O)[C@@H](Cc2c[nH]c3ccccc23)NC1=O [BQ-123] (cyclo(L[dW][dD]P[dV]))
ET-1 induced bronchoconstriction and tracheal smooth muscle contraction [2]: block ET-1 induced bronchoconstriction and tracheal smooth muscle contraction
survival rate (endotoxic shock): significantly increased the survival rate
early cerebral vasospasm following SAH (cerebral vasospasm [3]; rabbit): prevents early cerebral vasospasm following SAH
early cerebral vasospasm following subarachnoid hemorrhage (cerebral vasospasm [4]): prevent early cerebral vasospasm following subarachnoid hemorrhage
early cerebral vasospasm following SAH (cerebral vasospasm [5]): prevents early cerebral vasospasm following SAH

COc1ccc(C(=O)/C(Cc2ccccc2)=C(\C(=O)O)c2ccc3c(c2)OCO3)cc1 [Example 171, 2-Butenoic acid, 2-(1,3-benzodioxol-5-yl)-4-(4-methoxyphenyl)-4-oxo-3-(phenylmethyl)-, (Z)-, ion(1-) compd. with 2-hydroxy-N,N,N-triethanaminium (1:1)]
% Inhibition on ET-1 Induced Pressor Response ([6]; 3 μmol/kg): 21%
% Inhibition on ET-1 Induced Pressor Response ([6]; 10 μmol/kg): 26%
% Inhibition on ET-1 Induced Pressor Response ([6]; 30 μmol/kg): 35%
% Inhibition on ET-1 Induced Pressor Response ([6]; 100 μmol/kg): 57%
pIC50 (ETA [7]; ERBA-A IC50, [125I]-ET-1, rabbit renal artery vascular smooth muscle cells): 7.41
pIC50 (ETB [8]): 5.66

CCCOc1cccc(C/C(C(=O)c2ccc(OC)cc2)=C(/C(=O)O)c2ccc3c(c2)OCO3)c1 [Example 253, 2-Butenoic acid, 2-(1,3-benzodioxol-5-yl)-4-(4-methoxyphenyl)-4-oxo-3-[(3-propoxyphenyl)methyl]-, (Z)-, ion(1-) compound with 2-hydroxy-N,N,N-trimethylethanaminium (1:1)]
pIC50 (human ETB receptor): 6.05
% Inhibition on ET-1 Induced Pressor Response ([6]; 3 μmol/kg): 22%
% Inhibition on ET-1 Induced Pressor Response ([6]; 10 μmol/kg): 42%
% Inhibition on ET-1 Induced Pressor Response ([6]; 30 μmol/kg): 53%
pIC50 (ETA [7]; read-out: ERBA-A IC50, [125I]-ET-1, rabbit renal artery vascular smooth muscle cells): 7.77
VERA-A pA2 (ETA [9]): 7.0

COc1cccc(Oc2c(NS(=O)(=O)c3ccc(C(C)(C)C)cc3)ncnc2OCCO)c1 [Ro 46-2005]
efficacy in acute renal ischemia (acute renal ischemia): effective in models of acute renal ischemia
systemic arterial blood pressure (cerebral vasospasm [5]; rat with SAH): no significant effect on systemic arterial blood pressure
early cerebral vasospasm following SAH (cerebral vasospasm [5]): prevent early cerebral vasospasm following SAH
efficacy in subarachnoid hemorrhage (cerebral vasospasm [5]; rats): effective in models of acute renal ischemia and subarachnoid hemorrhage

COc1ccccc1Oc1c(NS(=O)(=O)c2ccc(C(C)(C)C)cc2)nc(-c2ncccn2)nc1OCCO [Ro 47-0203, Bosentan]
reduction of basilar artery cross-sectional area compared to sham (cerebral vasospasm [3]; rabbits with SAH): 36±7%

ET[6-21, 1,3,11,15-Ala]
vasorelaxation (ETB [10]): caused vasorelaxation

ET[8-21,11,15-Ala]
vasorelaxation (ETB [10]): caused vasorelaxation

N-Acetyl-ET[10-21,11,15-Ala]
vasorelaxation (ETB [10]): caused vasorelaxation
